System: retinal ganglion cells (RGCs)
Assay: Optic nerve axotomy model of glaucoma: RGC survival in vivo
Design: species or system Long-Evans rats
Text: As a model for studying treatment of glaucoma, damaged (axotomized) retinal ganglion cells were employed. Specifically, transection of the optic nerve close to the cell body causes apoptotic death of retinal ganglion cells (RGCs), similar to that found in glaucoma. […] Three days later, the left optic nerve was intraorbitally transected 1 mm from the globe. One day after axotomy, no remarkable change in the fluorescence pattern of RGCs was seen compared to that of controls. RGC density, as assessed by the number of fluorescently-labeled cells, began to decline between 4 and 7 days post axotomy. By 14 days, a substantial number of fluorescently-labeled RGCs appeared to have been lost. Morphologically, in whole-mounted retinas stained with cresyl violet, ganglion cell layer (GCL) of unlesioned control retinas manifest no apoptotic profiles or pyknotic nuclei. In contrast, by 10 days after axotomy, multiple degenerating cell bodies with pyknotic nuclei were apparent in the GCL, and the cell density in this layer appeared to be greatly diminished. When hydroxystilbamidine fluorescence in the GCL was quantified, in unlesioned control retinas the mean RGC density was 2533±104 cells/mm^2 (mean±SD). Within 14 days of axotomy, the mean RGC density decreased to 348±107 (14% of control).
One day after axotomy, activated (di-phosphorylated) p38 was visualized by immunocytochemistry in the RGC layer, but not in control retinas. By Western blotting, phosphorylated p38 was first detected 12 hours after axotomy and reached a maximum at 24 hours before decreasing. SB 203580 was administered intravitreally at the time of axotomy, and repeated at 5 days and 10 days.
Retrograde labeling of retinal ganglion cells. Adult male Long-Evans rats weighing 200 to 250 g were obtained from a local breeder and, for all experimental manipulations, were anesthetized with 1-2% isoflurane and 70% N2O. RGCs were retrogradely labeled with hydroxystilbamidine (Molecular Probes, Eugene, Oreg., also known as Fluoro-Gold™) to allow accurate counting of cell bodies as described in Vorwerk et al., Invest. Ophthalmol. Vis. Sci. 40:813-816. Rats were anesthetized and placed in a small stereotactic instrument. The skull was exposed and kept dry. The bregma was identified and marked, and a small window was drilled above the right hemisphere, leaving the dura intact.
Axotomy. Optic nerve axotomy was performed on the left eye 4 days after retrograde labeling. After incision of the dorsolateral conjunctiva, the lateral extraocular muscle was transected, and the optic nerve was exposed under a stereoscopic microscope. The optic nerve was then transected at a distance of about 1 mm from the eye bulb. During the operation, care was taken to avoid damage to the retinal blood supply.
Drug application. Intravitreal injections were carried out using a 33-gauge needle attached to a 25 μl syringe following pupil dilation with 1% atropine sulfate. The tip of the needle was inserted through the dorsal limbus of the eye under stereomicroscopic visualization. Injections were completed over a period of 1 min. Intravitreal injections of SB 203580 (Calbiochem, San Diego, Calif.), MK801 (Research Biochemicals International, Natick, Mass.) or control solutions (as an equal volume of saline diluent) were performed on operated eyes immediately after axotomy, and repeated 5 and 10 days post axotomy.
Quantification of axotomized RGC survival and histology. […]

## C[S+]([O-])c1ccc(-c2nc(-c3ccc(F)cc3)c(-c3ccncc3)[nH]2)cc1 (stereo not shown) [SB 203580, 4-(4-fluorophenyl)-2-(4-methylsulfinylphenyl)-5-(4-pyridyl)-1H-imidazole]
0.2 nmol intravitreal (corresponding to 1.6 μM), 14 days post axotomy
  neuroprotection of RGCs: significant degree of neuroprotection
10 nmol intravitreal, 14 days post axotomy, axotomy alone 348, control 2,511
  number of surviving RGCs: 1,347 cells/mm^2
14 days post axotomy, intravitreal at axotomy, 5 and 10 days, dose series
  number of surviving RGCs: increased the number of surviving RGCs in a dose-dependent manner
SB 203580 added to MK801, intravitreal, axotomy
  RGC protection on addition to MK801, compared with MK801 alone: did not offer further protection

Source: patent publication US20030078274A1, “Method of reducing neuronal injury or apoptosis” (priority 1999, published 2003)
